Where “and” joins values, the source holds several entries; their conditions need not be identical. Equal entries are not always repeated.
Experiments:
JAK1 = JAK1 (Homo sapiens, UniProt P23458); assay: JAK1 kinase inhibition, Calliper assay; assay type: biochemical; conditions: physiological ATP concentration of 5 mM
[1] = Solubility in phosphate buffer; assay type: physicochemical; conditions: pH 7.4, aqueous buffer
Text: TABLE 1 In vitro potency and selectivity of JAK inhibitors | column: Solubility (μM) ^c

Basic pKa = assay type: physicochemical; conditions: read-out: Basic pKa's
Text: TABLE 2 In vitro and in vivo DMPK properties of Cmpd A, B & C | column: In vitro mouse & physical chemical properties / Basic pKa's

[2] = Unbound fraction in tissue from rearranged Gillette equation; assay type: in vitro ADME, mouse
Text: (§1) Detailed description in Supplementary materials.

[3] = Caco permeability and efflux; assay type: in vitro ADME; conditions: human, Caco-2
Text: TABLE 2 In vitro and in vivo DMPK properties of Cmpd A, B & C | column: In vitro mouse & physical chemical properties / Caco AtB 10^−6 cm/s/Efflux ratio ^b

[4] = Mouse pharmacokinetics i.v./p.o.; assay type: in vivo; conditions: plasma, male C57Bl6 mice
Experimental: as §1
Pharmacokinetics and evaluation of compound exposures: Male C57/BL mice were obtained from Si Bei Fu and weighed approximately 20-30 grams (7-9 weeks) at the start of the pharmacokinetic study. Animals had free access to food and water during the course of the experiment. Dose formulations were prepared on the study day and were stirred at room temperature for at least 15 minutes prior dosing and during the administration event. Cmpd A, B and C were dosed at 0.5-1 mg/kg i.v. and 1-300 mg/kg p.o. The dorsal metatarsal vein was used for sampling and typically 0.02 mL blood was withdrawn. Blood was taken at 2, 5, 15, 45 min, 2, 4, 8, 24 hours post the i.v. dose and at 15, 30 min, 1, 2, 4, 8, 24 hours post the p.o. dose. Blood of each sample was transferred into plastic micro centrifuge tubes containing 2 μL of 1000 IU Heparin-Na anticoagulant. These tubes were then inverted several times and placed on wet ice prior to centrifugation at 10,000 rpm for 2 minutes at 4°C in order to collect plasma. Plasma samples were stored at -75±15°C prior analysis. Compound concentrations were analyzed using a LC-MS/MS method (see below).
Effective T1/2 equals Ln2 x Vss/CL.

[5] = system: C3H/HeJ mouse model of AA; assay: Hair growth (Hair Index Score) in C3H/HeJ graft-induced AA mice; assay type: in vivo; conditions: for Hair index score (% area x score, 0 to 3): individual mice and mean±SD
Experimental: Female C3H/HeJ graft‐induced mice were used as a preclinical model of Alopecia Areata (AA) according to previous publications.[45], [46], [47] Healthy C3H/HeJ and mice with fully developed AA (16–24 weeks after induction of disease) were monitored by means of body weight and hair index score on a weekly basis for 12 weeks, with free access to food and water (Healthy and AA groups, respectively).
Hair growth was evaluated using a scoring index (Hair Index Score, HIS). A score from 0 to 3 (0 = no fur, 1 = stubble, short broken hairs, 2 = sparse, intermediate length hairs, 3 = normal length and density hairs) was taken times the surface area of the mouse with each respective score (dorsal area = 50%, ventral area = 50%).
12 mice were given once daily servings of Cmpd A for free eating at approximately 100 mg/kg (compound dissolved in 10 ml tap water and mixed with 5 g grounded R70 standard rodent chow from Lantmännen, Sweden) for 4 weeks. Typically, these servings were finished within 2 h. Six mice were terminated at the end of the treatment period, blood and skin taken for determination of drug concentration and skin sampled for histopathological evaluation (see below, these mice are representing the systemic JAK1 inhibition group in histopathological evaluations). Skin biopsies for mRNA expression and blood was sampled from the other 6 mice where after these mice were followed off treatment for an additional 8 weeks when terminal samples were taken (8w off Tx group).
Another set of 6 mice were treated topically on the right side of their back with Cmpd B (0.1% cream formulation, Eucerin Aquaporin rich) for 12 weeks (local JAK1 inhibition group). Initially, twice weekly for 2 weeks followed by once weekly due to high tissue retention. Plasma exposure was evaluated during the course of the study as well as at termination when also skin was sampled for exposure, histopathological evaluation and mRNA expression.
The aim of the study was to achieve similar skin exposures by both routes of administration but only systemic exposure after oral administration. […] Blood, skin, lymph nodes and spleens were collected at termination for evaluation of exposure, mRNA expression, histopathology (RNAScope) and cell differentials (flow cytometry). Untreated healthy and alopecic mice served as controls (n = 6).

Sequence of JAK1 (P23458 whole entry, species assumed): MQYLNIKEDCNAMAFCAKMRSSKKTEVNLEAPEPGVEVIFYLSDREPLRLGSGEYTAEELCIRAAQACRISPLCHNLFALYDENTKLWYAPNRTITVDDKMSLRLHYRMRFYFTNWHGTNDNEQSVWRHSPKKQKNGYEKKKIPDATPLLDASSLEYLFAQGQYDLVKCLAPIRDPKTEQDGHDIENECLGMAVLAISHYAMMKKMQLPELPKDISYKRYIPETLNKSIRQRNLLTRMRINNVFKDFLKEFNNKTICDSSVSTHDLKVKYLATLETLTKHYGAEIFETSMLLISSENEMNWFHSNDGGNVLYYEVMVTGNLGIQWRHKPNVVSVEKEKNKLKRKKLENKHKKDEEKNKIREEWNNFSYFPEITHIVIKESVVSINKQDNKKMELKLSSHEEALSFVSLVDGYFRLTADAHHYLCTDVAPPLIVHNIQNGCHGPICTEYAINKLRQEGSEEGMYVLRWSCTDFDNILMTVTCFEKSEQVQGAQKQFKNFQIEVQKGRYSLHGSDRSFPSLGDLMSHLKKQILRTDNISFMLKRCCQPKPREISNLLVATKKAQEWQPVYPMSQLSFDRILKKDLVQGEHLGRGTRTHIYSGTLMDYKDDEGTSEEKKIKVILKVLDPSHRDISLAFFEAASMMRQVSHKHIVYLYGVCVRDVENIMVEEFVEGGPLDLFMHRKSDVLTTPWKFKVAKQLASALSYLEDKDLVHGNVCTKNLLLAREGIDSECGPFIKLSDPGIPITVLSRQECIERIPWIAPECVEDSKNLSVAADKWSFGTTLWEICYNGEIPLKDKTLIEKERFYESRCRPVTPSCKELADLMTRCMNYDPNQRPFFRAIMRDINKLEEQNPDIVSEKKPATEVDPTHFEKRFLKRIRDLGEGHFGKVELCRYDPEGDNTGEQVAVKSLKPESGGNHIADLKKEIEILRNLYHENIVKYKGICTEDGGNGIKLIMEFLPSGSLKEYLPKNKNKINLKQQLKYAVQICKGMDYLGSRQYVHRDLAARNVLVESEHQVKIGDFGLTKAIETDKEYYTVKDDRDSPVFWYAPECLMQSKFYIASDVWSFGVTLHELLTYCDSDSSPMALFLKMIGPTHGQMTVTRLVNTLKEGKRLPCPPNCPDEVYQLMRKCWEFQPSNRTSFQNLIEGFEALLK

In the case of `Cc1cnc(Nc2cccnc2F)nc1-c1c[nH]c2c(NC(=O)[C@@H](C)N3CCN(C)CC3)cccc12` [Cmpd A], the IC50 (JAK1) is reported as 27 nM, the solubility [1] is reported as greater than 337 µM and the pKa (Basic pKa) is reported as 7.9. The “f u, tissue” value ([2]; mouse, from rearranged Gillette equation, V blood 0.07 L/kg, V tissue 0.6 L/kg) was 0.003, the “unbound fraction in plasma compared to skin” value ([2]; skin value estimated from the Gillette equation) was roughly 10 fold and the efflux ratio ([3]; Efflux ratio = BtA/AtB) was 1. For the same compound, the Papp A→B ([3]; read-out: Caco AtB) was 21 ×10⁻⁶ cm/s, the clearance ([4]; iv, i.v. 0.5-1.0 mg/kg) was 32 mL/min/kg and the Vd ([4]; iv, i.v. 0.5-1.0 mg/kg, read-out: V ss) was 9.1 L/kg. The bioavailability ([4]; po, p.o. 300 (A), 1.0 (B), 2.0 (C) mg/kg, read-out: Oral % F) was 100%, the “remission after treatment cessation” value ([5]; AA mice, 4 weeks treatment, followed 8 weeks off treatment) was “relapsed after treatment cessation” and the “hair growth, result in words” value ([5]; AA mice, oral daily servings (systemic exposure)) was “quick and complete restoration of hair growth”. For the same compound, the “time to complete regrowth (Hair Index Score)” value ([5]; AA mice, oral treatment, n = 6 per group) was no more than 4 weeks, the “Hair index score (% area x score, 0 to 3)” value ([5]; Systemic JAK1i group terminated at w4 (oral ~100 mg/kg daily), w0, n=6, 100 mg/kg) was 0 and 20 and the “Hair index score (% area x score, 0 to 3)” value ([5]; Systemic JAK1i group terminated at w4 (oral ~100 mg/kg daily), w0, n=6, 100 mg/kg, mean) was 3±8. For the same compound, the “Hair index score (% area x score, 0 to 3)” value ([5]; Systemic JAK1i group terminated at w4, w1) was 0 and 15 and 10, the “Hair index score (% area x score, 0 to 3)” value ([5]; Systemic JAK1i group terminated at w4, w1, mean) was 7±7 and the “Hair index score (% area x score, 0 to 3)” value ([5]; Systemic JAK1i group terminated at w4, w2) was 160 and 170 and 180 and 120 and 190. The “Hair index score (% area x score, 0 to 3)” value ([5]; Systemic JAK1i group terminated at w4, w2, mean) was 163±24, the “Hair index score (% area x score, 0 to 3)” value ([5]; Systemic JAK1i group terminated at w4, w3) was 280 and 285 and 290 and 250 and 295 and the “Hair index score (% area x score, 0 to 3)” value ([5]; Systemic JAK1i group terminated at w4, w3, mean) was 280±16. The “Hair index score (% area x score, 0 to 3)” value ([5]; Systemic JAK1i group terminated at w4, w4) was 300, the “Hair index score (% area x score, 0 to 3)” value ([5]; Systemic JAK1i group terminated at w4, w4, mean) was 300±0 and the “Hair index score (% area x score, 0 to 3)” value ([5]; Systemic JAK1i group treated 4 weeks then followed off treatment, w0, n=6) was 125 and 50 and 20 and 90. The “Hair index score (% area x score, 0 to 3)” value ([5]; Systemic JAK1i group treated 4 weeks then followed off treatment, w0, n=6, mean) was 71±38, the “Hair index score (% area x score, 0 to 3)” value ([5]; Systemic JAK1i group treated 4 weeks then off treatment, w1) was 125 and 50 and 20 and 90 and the “Hair index score (% area x score, 0 to 3)” value ([5]; Systemic JAK1i group treated 4 weeks then off treatment, w1, mean) was 71±38. The “Hair index score (% area x score, 0 to 3)” value ([5]; Systemic JAK1i group treated 4 weeks then off treatment, w2) was 170 and 200 and 140 and 180 and 190, the “Hair index score (% area x score, 0 to 3)” value ([5]; Systemic JAK1i group treated 4 weeks then off treatment, w2, mean) was 180±23 and the “Hair index score (% area x score, 0 to 3)” value ([5]; Systemic JAK1i group treated 4 weeks then off treatment, w4) was 285 and 295 and 300. The “Hair index score (% area x score, 0 to 3)” value ([5]; Systemic JAK1i group treated 4 weeks then off treatment, w4, mean) was 295±5, the “Hair index score (% area x score, 0 to 3)” value ([5]; Systemic JAK1i group treated 4 weeks then off treatment, w8 (4 weeks off)) was 245 and 200 and 210 and 195 and 270 and 75 and the “Hair index score (% area x score, 0 to 3)” value ([5]; Systemic JAK1i group treated 4 weeks then off treatment, w8 (4 weeks off), mean) was 199±67. For the same compound, the “Hair index score (% area x score, 0 to 3)” value ([5]; Systemic JAK1i group treated 4 weeks then off treatment, w12 (8 weeks off)) was 90 and 60 and 85 and 45 and 205 and 35 and the “Hair index score (% area x score, 0 to 3)” value ([5]; Systemic JAK1i group treated 4 weeks then off treatment, w12 (8 weeks off), mean) was 87±62.

From article PMC10233092, “Selective Janus kinase 1 inhibition resolves inflammation and restores hair growth offering a viable treatment option for alopecia areata” (Skin Health and Disease, 2023)
